Assay results reported in the NIST ThermoML archive (doi:10.1016/j.jct.2015.06.004).

How the values were obtained:
[1] = 298.15 K; 101.33 kPa; Liquid; Vibrating tube method
[2] = excess molar enthalpy (molar enthalpy of mixing); xn = mol fraction of the nth substance listed; conditions: 298.15 K, 100 kPa, Liquid, Power-compensation calorimetry

CCCC[N+]1(C)CCCC1.N#C[B-](C#N)(C#N)C#N [1-butyl-1-methylpyrrolidinium tetracyanoborate]
Conditions	mass density [kg/m3]
[1]	975.61

Cc1ccccc1 [toluene]
Conditions	mass density [kg/m3]
[1]	862.22

CO [methanol]
Conditions	mass density [kg/m3]
[1]	786.6

c1ccsc1 [thiophene]
Conditions	mass density [kg/m3]
[1]	1058.46

CCCC[N+]1(C)CCCC1.N#C[B-](C#N)(C#N)C#N [1-butyl-1-methylpyrrolidinium tetracyanoborate] + c1ccsc1
[2]
Conditions	excess molar enthalpy [kcal/mol]
x1 = 0.0147	-0.0239
x1 = 0.0293	-0.0467
x1 = 0.0439	-0.0692
x1 = 0.0586	-0.0916
x1 = 0.0732	-0.114
x1 = 0.0879	-0.136
x1 = 0.1026	-0.158
x1 = 0.1173	-0.18
x1 = 0.1321	-0.202
x1 = 0.1468	-0.224
x1 = 0.1616	-0.245
x1 = 0.1763	-0.263
x1 = 0.1911	-0.279
x1 = 0.2059	-0.292
x1 = 0.2207	-0.302
x1 = 0.2316	-0.303
x1 = 0.2355	-0.31
x1 = 0.2503	-0.316
x1 = 0.2515	-0.311
x1 = 0.2642	-0.319
x1 = 0.2763	-0.315
x1 = 0.316	-0.313
x1 = 0.3559	-0.303
x1 = 0.3957	-0.289
x1 = 0.4356	-0.272
x1 = 0.4756	-0.253
x1 = 0.5155	-0.233
x1 = 0.5556	-0.213
x1 = 0.5958	-0.192
x1 = 0.636	-0.172
x1 = 0.6763	-0.151
x1 = 0.7165	-0.131
x1 = 0.757	-0.111
x1 = 0.7974	-0.0918
x1 = 0.8378	-0.0726
x1 = 0.8782	-0.0537
x1 = 0.9188	-0.0352
x1 = 0.9595	-0.017

CCCCO [butan-1-ol]
Conditions	mass density [kg/m3]
[1]	805.79

CCCO [propan-1-ol]
Conditions	mass density [kg/m3]
[1]	799.56

CCCC[N+]1(C)CCCC1.N#C[B-](C#N)(C#N)C#N [1-butyl-1-methylpyrrolidinium tetracyanoborate] + CCCCO
[2]
Conditions	excess molar enthalpy [kcal/mol]
x1 = 0.0149	0.0582
x1 = 0.03	0.111
x1 = 0.0449	0.159
x1 = 0.0599	0.202
x1 = 0.0749	0.242
x1 = 0.0899	0.279
x1 = 0.1049	0.313
x1 = 0.1199	0.344
x1 = 0.1349	0.373
x1 = 0.1499	0.4
x1 = 0.1649	0.425
x1 = 0.1799	0.448
x1 = 0.1949	0.469
x1 = 0.2099	0.489
x1 = 0.2248	0.507
x1 = 0.2399	0.524
x1 = 0.2549	0.539
x1 = 0.2698	0.553
x1 = 0.2849	0.565
x1 = 0.2999	0.576
x1 = 0.4828	0.591
x1 = 0.5199	0.579
x1 = 0.557	0.561
x1 = 0.5941	0.537
x1 = 0.631	0.508
x1 = 0.6681	0.474
x1 = 0.7049	0.435
x1 = 0.7419	0.392
x1 = 0.7789	0.346
x1 = 0.8157	0.295
x1 = 0.8525	0.242
x1 = 0.8892	0.186
x1 = 0.9262	0.126
x1 = 0.9632	0.0638

CCCC[N+]1(C)CCCC1.N#C[B-](C#N)(C#N)C#N [1-butyl-1-methylpyrrolidinium tetracyanoborate] + CCCO
[2]
Conditions	excess molar enthalpy [kcal/mol]
x1 = 0.014	0.0518
x1 = 0.028	0.0994
x1 = 0.042	0.143
x1 = 0.056	0.183
x1 = 0.07	0.22
x1 = 0.084	0.255
x1 = 0.098	0.287
x1 = 0.112	0.317
x1 = 0.126	0.345
x1 = 0.1399	0.37
x1 = 0.1539	0.394
x1 = 0.168	0.417
x1 = 0.1819	0.437
x1 = 0.1959	0.456
x1 = 0.21	0.474
x1 = 0.224	0.49
x1 = 0.2257	0.484
x1 = 0.238	0.504
x1 = 0.252	0.518
x1 = 0.2592	0.522
x1 = 0.264	0.528
x1 = 0.2983	0.553
x1 = 0.3374	0.573
x1 = 0.3765	0.584
x1 = 0.4156	0.588
x1 = 0.4547	0.584
x1 = 0.4938	0.573
x1 = 0.5329	0.556
x1 = 0.572	0.533
x1 = 0.611	0.505
x1 = 0.65	0.471
x1 = 0.6891	0.433
x1 = 0.7282	0.39
x1 = 0.7672	0.343
x1 = 0.8062	0.292
x1 = 0.8451	0.238
x1 = 0.8839	0.18
x1 = 0.9228	0.119
x1 = 0.9615	0.0556
